Numbered stars: 1 amine (or outer) side, 2 acyl side, 3 side chain; on linkers, the order of the positions; unused ones are H or OH. Square brackets hold non-standard residues; d marks the D form. Side chains are listed from the residue outwards. Peptide text beside a SMILES is read from it. * marks the point of attachment. C20 diacid = O=C(O)CCCCCCCCCCCCCCCCCCC(=O)*; γGlu = O=C(O)[C@H](CCC(=O)[*:2])N[*:1]; αMeL = CC(C)C[C@](C)(N)C(=O)O; Orn = NCCC[C@H](N)C(=O)O; AEEA = NCCOCCOCC(=O)O; Aib = CC(C)(N)C(=O)O
Assays:
[1] = molecular target: human GLP-1 receptor (GLP-1R) (Homo sapiens, UniProt P43220); assay: cAMP pharmacological functional assay in presence of casein, hGLP-1R; type: cell-based; conditions: HEK293 cells expressing hGLP-1R, 0.1% Casein, geometric mean; read-out: hGLP1R cAMP Rel EC50 nM (SEM, n)
Sequence of human GLP-1 receptor (GLP-1R) (P43220 24-463): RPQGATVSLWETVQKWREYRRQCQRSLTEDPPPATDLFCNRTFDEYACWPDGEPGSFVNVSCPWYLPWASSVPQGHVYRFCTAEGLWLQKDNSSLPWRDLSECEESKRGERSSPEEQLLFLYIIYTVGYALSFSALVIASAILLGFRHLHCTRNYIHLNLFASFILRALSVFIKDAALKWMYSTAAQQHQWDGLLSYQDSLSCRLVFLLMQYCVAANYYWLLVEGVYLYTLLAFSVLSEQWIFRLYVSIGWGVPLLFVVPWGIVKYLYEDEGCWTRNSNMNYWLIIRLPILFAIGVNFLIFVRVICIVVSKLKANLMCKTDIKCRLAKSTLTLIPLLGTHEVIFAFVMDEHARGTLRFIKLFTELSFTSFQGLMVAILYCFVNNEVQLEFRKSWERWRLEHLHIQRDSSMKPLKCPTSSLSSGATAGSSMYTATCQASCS

[2] = molecular target: T1, gastric inhibitory peptide receptor (GIPR) (Homo sapiens, UniProt P48546); assay: cAMP pharmacological functional assay in presence of casein, hGIPR; type: cell-based; conditions: HEK293 cells expressing hGIPR, 0.1% Casein, geometric mean; read-out: hGIPR cAMP Rel EC50 nM (SEM, n)
T1 sequence (P48546 22-466): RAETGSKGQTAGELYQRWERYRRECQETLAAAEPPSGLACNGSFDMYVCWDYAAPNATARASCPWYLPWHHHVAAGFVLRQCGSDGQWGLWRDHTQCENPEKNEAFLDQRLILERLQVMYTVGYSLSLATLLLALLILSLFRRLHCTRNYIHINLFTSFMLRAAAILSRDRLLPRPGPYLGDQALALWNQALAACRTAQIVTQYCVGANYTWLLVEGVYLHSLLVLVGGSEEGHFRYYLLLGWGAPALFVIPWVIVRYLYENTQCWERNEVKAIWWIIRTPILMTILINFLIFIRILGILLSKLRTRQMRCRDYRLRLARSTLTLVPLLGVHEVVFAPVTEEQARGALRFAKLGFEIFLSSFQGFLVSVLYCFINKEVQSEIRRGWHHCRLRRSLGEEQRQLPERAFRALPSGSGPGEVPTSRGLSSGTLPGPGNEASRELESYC

[3] = molecular target: T2, human GLP-1R (Homo sapiens, UniProt P43220); assay: GLP-1R CHO cell β-arrestin recruitment assay; type: cell-based; design: host or cells: CHO-K1 PathHunter cells, assay-ready frozen; conditions: for EC50: CHO-K1 cells, PathHunter β-arrestin-2 recruitment, 0.1% casein, read-out: hGLP1R B-Arrestin2 Rel EC50 uM (SEM, n); for hGLP1R B-Arrestin2 % Top: normalized to GLP-1 maximum control
T2 sequence (P43220 24-463): as the sequence (P43220 24-463) above
Outline: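 Peptide-induced β-arrestin-2 recruitment measured by enzyme-fragment complementation luminescence after 90 min at 37 °C plus 60 min detection at RT.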

[4] = molecular target: T2, human GLP-1R; assay: GLP-1R HEK293 cell membrane [35S]GTPγS binding assay; type: biochemical; design: expressed in transfected cells; host or cells: HEK293 cells expressing human GLP-1R; membranes; conditions: HEK293 cell membranes expressing human GLP-1R, [35S]GTPγS binding; read-out: hGLP1R GTPgS Rel EC50 nM (SEM, n)
Outline: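 Agonist-driven Gαs activation read as [35S]GTPγS ([…]) binding to receptor-expressing HEK293 membranes, 30 min at room temperature, pH 7.4. Detection by anti-Gαs immunocapture on scintillation beads; EC50 derived from four-parameter logistic concentration-response fit.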

Compound	EC50 [1] [nM]	EC50 [2] [nM]	EC50 [3] [µM]	hGLP1R B-Arrestin2 % Top [3] [%]	EC50 [4] [nM]
CC[C@H](C)[C@H](NC(=O)[C@H](CC(C)C)NC(=O)[C@H](Cc1ccc(O)cc1)NC(=O)[C@H](CCC(=O)O)NC(=O)[C@@H](NC(=O)[C@H](Cc1ccccc1)NC(=O)[C@H](CC(=O)O)NC(=O)C(C)(C)NC(=O)[C@H](CCC(N)=O)NC(=O)[C@H](C)NC(=O)[C@H](CCCCNC(=O)COCCOCCNC(=O)COCCOCCNC(=O)CC[C@H](NC(=O)CCCCCCCCCCCCCCCCCCC(=O)O)C(=O)O)NC(=O)[C@H](CCCN)NC(=O)[C@H](CC(=O)O)NC(=O)[C@H](CC(C)C)NC(=O)[C@](C)(CC(C)C)NC(=O)[C@@H](NC(=O)[C@H](CO)NC(=O)[C@H](Cc1ccc(O)cc1)NC(=O)[C@H](CC(=O)O)NC(=O)[C@H](CO)NC(=O)[C@@H](NC(=O)[C@H](Cc1ccccc1)NC(=O)[C@@H](NC(=O)CNC(=O)[C@H](CCC(=O)O)NC(=O)C(C)(C)NC(=O)[C@H](N)Cc1ccc(O)cc1)[C@@H](C)O)[C@@H](C)O)[C@@H](C)CC)[C@@H](C)CC)C(=O)N[C@@H](C)C(=O)NCC(=O)NCC(=O)N1CCC[C@H]1C(=O)N[C@@H](CO)C(=O)N[C@@H](CO)C(=O)NCC(=O)N[C@@H](C)C(=O)N1CCC[C@H]1C(=O)N1CCC[C@H]1C(=O)N1CCC[C@H]1C(=O)N[C@@H](CO)C(N)=O [Example 369] (H-[dY][Aib]EGTFTSDYSI[αMeL]LD[Orn]K([AEEA-AEEA-γGlu-C20 diacid])AQ[Aib]DFIEYLIAGGPSSGAPPPS-NH2; N-terminus assumed)	0.101	0.166	0.0414	19.9	0.381
CC[C@H](C)[C@H](NC(=O)[C@H](CC(C)C)NC(=O)[C@H](Cc1ccc(O)cc1)NC(=O)[C@H](CCC(=O)O)NC(=O)[C@@H](NC(=O)[C@H](Cc1ccccc1)NC(=O)[C@H](CCC(=O)O)NC(=O)C(C)(C)NC(=O)[C@H](CCC(N)=O)NC(=O)[C@H](C)NC(=O)[C@H](CCCCNC(=O)COCCOCCNC(=O)CC[C@H](NC(=O)CCCCCCCCCCCCCCCCCCC(=O)O)C(=O)O)NC(=O)[C@H](CCCN)NC(=O)[C@H](CC(=O)O)NC(=O)[C@H](CC(C)C)NC(=O)[C@](C)(CC(C)C)NC(=O)[C@@H](NC(=O)[C@H](CO)NC(=O)[C@H](Cc1ccc(O)cc1)NC(=O)[C@H](CC(=O)O)NC(=O)[C@H](CO)NC(=O)[C@@H](NC(=O)[C@H](Cc1ccccc1)NC(=O)[C@@H](NC(=O)CNC(=O)[C@H](CCC(=O)O)NC(=O)C(C)(C)NC(=O)[C@H](N)Cc1ccc(O)cc1)[C@@H](C)O)[C@@H](C)O)[C@@H](C)CC)[C@@H](C)CC)C(=O)N[C@@H](C)C(=O)NCC(=O)NCC(=O)N1CCC[C@H]1C(=O)N[C@@H](CO)C(=O)N[C@@H](CO)C(=O)NCC(=O)N[C@@H](C)C(=O)N1CCC[C@H]1C(=O)N1CCC[C@H]1C(=O)N1CCC[C@H]1C(=O)N[C@@H](CO)C(N)=O [Example 371] (H-[dY][Aib]EGTFTSDYSI[αMeL]LD[Orn]K([AEEA-γGlu-C20 diacid])AQ[Aib]EFIEYLIAGGPSSGAPPPS-NH2)	0.132	0.135	0.0142	21.7	0.27
